Measured values reported in patent US3944498A, “Germicidal detergent containing a thienyliodonium salt” (The Dow Chemical Company, priority 1973, dated 1976).
Where two headings read alike, the source gives them in different places.

Legend:
S. typhosa [1] = assay: Agar dilution MIC in absence of soap, S. typhosa; format: cell-based; settings: read-out: Minimum growth inhibitory concentration, S. typhosa
Method: (§1) The growth-inhibitory activity of the below-indicated compounds against some microorganisms most relevant to the human skin was determined by standard agar dilution techniques to provide the data given in following Table 1.
(§2) In Table 1, the first column gives the chemical structures of the test compounds, while the additional columns give the names of the test organisms and the minimum inhibitory concentration in parts per million (p.p.m.) of the compounds listed for 100% growth inhibition against the particular microorganisms indicated. […] For each p.p.m. of test compound, 50 p.p.m. of Ivory soap was also present in the culture medium for part A of Table 1, while in part B of Table 1, the culture medium was free of any additive other than the test compound. The data for compounds 13 through 16 of part B of Table 1 were taken from Cannon U.S. Pat. No. 3,207,660 while those for compounds 17 and 18 were taken from trade literature.

P. aeruginosa [2] = assay: Agar dilution MIC in absence of soap, P. aeruginosa; format: cell-based; settings: Pseudomonas aeruginosa; read-out: Minimum growth inhibitory concentration, P. aeruginosa
Method: as §1, §2

S. aureus [3] = assay: Agar dilution MIC in absence of soap, S. aureus; format: cell-based; settings: Staphylococcus aureus; read-out: Minimum growth inhibitory concentration, S. aureus
Method: as §1, §2

S. aureus [4] = settings: absence of soap; 13-16 from Cannon U.S. Pat. No. 3,207,660, 17-18 from trade literature; cited from earlier work
mice = settings: 12-15 from U.S. Pat. No. 3,207,660, 17, 18 from trade literature, cited from earlier work
S. typhosa [5] = settings: absence of soap; 17-18 from trade literature; cited from earlier work
P. aeruginosa [6] = settings: absence of soap, 13-16 from Cannon U.S. Pat. No. 3,207,660, 17-18 from trade literature, cited from earlier work

With `FC(F)(F)c1cccc([I+]c2cccs2)c1` [Compound 12 (Table 1)] the MIC (S. typhosa [1]) was 10 µg/mL, the MIC (P. aeruginosa [2]) was 50 µg/mL and the MIC (S. aureus [3]) was less than 1 µg/mL.

`COc1ccc([I+]c2cccc(C(F)(F)F)c2)cc1` [Compound 11 (Table 1)] gave an MIC (S. typhosa [1]) of 100 µg/mL, an MIC (P. aeruginosa [2]) of 500 µg/mL and an MIC (S. aureus [3]) of 10 µg/mL.

For `Oc1cc(Cl)ccc1Oc1ccc(Cl)cc1Cl` [Irgasan], the “Minimum growth inhibitory concentration, S. aureus” value (S. aureus [4]) is given as 1 ppm, the “Oral LD50 (mice)” value (mice) is given as 4,000 mg/kg and the “Oral LD50 (mice)” value (mice; listed as Compound 17 (Table 2)) is given as 4000 mg/kg. The “Minimum growth inhibitory concentration, S. typhosa” value (S. typhosa [5]) was 1 ppm, the “Minimum growth inhibitory concentration, P. aeruginosa” value (P. aeruginosa [6]) was “more than 300 ppm” and the “Minimum growth inhibitory concentration, P. aeruginosa” value (P. aeruginosa [6]; listed as Compound 18 (Table 1)) was greater than 300 ppm.
